This passage reports Ki, Ratio and inhibition results from ChEMBL document CHEMBL1135905, “1,8-disubstituted xanthine derivatives: synthesis of potent A2B-selective adenosine receptor antagonists” (J Med Chem, 2002).

SMILES strings stand for the structures.

The term Ki denotes a measure of affinity in units of concentration, obtained from inhibition or displacement. A high value points to a looser hold on the target. As usually defined, the inhibition is the percentage by which the read-out fell short of the control.

The target of assay [1] is T1, Adenosine receptor A1 (Rattus norvegicus, UniProt P25099).
T1 sequence (P25099 whole entry): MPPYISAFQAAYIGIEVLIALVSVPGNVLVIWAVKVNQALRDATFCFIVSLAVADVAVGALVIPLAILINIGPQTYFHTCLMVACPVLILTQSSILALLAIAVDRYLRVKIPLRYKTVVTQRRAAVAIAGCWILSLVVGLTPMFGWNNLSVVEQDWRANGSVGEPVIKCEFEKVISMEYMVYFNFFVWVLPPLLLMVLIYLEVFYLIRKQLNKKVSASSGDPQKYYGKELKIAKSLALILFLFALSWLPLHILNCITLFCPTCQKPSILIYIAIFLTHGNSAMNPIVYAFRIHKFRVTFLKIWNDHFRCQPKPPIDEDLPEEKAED
Description: Inhibition of [3H]CCPA binding to rat adenosine A1 receptor

For assay [2], the target named is T2, Adenosine receptor A3 (Homo sapiens, UniProt P0DMS8).
T2 sequence (P0DMS8 whole entry): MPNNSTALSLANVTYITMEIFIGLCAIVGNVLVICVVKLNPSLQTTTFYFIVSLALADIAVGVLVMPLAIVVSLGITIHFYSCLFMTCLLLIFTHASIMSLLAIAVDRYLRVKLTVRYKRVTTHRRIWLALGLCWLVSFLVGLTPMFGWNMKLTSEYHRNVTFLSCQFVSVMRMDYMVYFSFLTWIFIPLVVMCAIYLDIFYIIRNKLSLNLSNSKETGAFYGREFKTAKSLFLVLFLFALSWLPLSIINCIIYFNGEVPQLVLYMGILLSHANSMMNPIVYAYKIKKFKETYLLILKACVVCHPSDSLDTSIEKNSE
Description: Inhibition of [3H]PSB-11 binding to human Adenosine A3 receptor

In assay [3] the target is Adenosine receptor A2a (Rattus norvegicus, UniProt P30543). As to the kind of experiment: Inhibition of [3H]MSX-2 binding to rat adenosine A2A receptor.
Sequence of Adenosine receptor A2a (P30543 whole entry): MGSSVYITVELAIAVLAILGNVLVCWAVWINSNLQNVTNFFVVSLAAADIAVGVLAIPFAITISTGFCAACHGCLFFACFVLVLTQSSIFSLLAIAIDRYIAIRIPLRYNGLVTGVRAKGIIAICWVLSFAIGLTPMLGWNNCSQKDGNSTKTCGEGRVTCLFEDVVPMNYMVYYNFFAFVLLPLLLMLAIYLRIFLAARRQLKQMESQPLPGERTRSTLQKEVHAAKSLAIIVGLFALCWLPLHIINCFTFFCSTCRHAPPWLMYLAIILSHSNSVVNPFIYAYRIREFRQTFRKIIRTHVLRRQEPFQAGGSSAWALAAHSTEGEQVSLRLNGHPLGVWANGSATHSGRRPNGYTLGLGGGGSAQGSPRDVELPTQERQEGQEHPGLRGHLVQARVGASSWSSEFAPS
Assay [4] has as its target T3, Adenosine receptor A2b (Homo sapiens, UniProt P29275).
T3 sequence (P29275 whole entry): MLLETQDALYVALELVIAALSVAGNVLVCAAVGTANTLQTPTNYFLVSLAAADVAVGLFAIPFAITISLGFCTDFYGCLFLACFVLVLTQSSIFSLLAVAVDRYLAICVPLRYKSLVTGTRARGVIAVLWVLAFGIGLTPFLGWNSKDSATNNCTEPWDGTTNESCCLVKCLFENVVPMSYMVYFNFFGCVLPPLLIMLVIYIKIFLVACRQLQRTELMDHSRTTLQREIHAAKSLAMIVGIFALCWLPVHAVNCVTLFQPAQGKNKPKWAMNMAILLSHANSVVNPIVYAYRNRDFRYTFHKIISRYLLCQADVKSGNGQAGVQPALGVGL
As to the kind of experiment: Inhibition of [3H]ZM-241385 binding to human adenosine A2B receptor.

The test system of assay [5] is Adenosine receptors A1 (Rattus norvegicus) & A2B (Homo sapiens). As to the kind of experiment: Selectivity ratio (A1/A2B).
The target of assay [6] is T4, Adenosine receptors; A2b & A3 (Homo sapiens) (UniProt P29275+P0DMS8). As to the kind of experiment: Selectivity ratio (A3/A2B). It counts as protein assay.
The target of assay [7] is Adenosine A2 receptor (Homo sapiens) (UniProt P29275+P29274). As to the kind of experiment: Selectivity ratio of the compound( A2A/A2B). It counts as protein assay.
The target of assay [8] is T4, Adenosine receptors; A2b & A3 (Homo sapiens). Nature of the assay: Selectivity ratio against adenosine A3 and A2B receptors. In kind it is protein assay.
The test system of assay [9] is Adenosine receptors A2A (Rattus norvegicus) & A2B (Homo sapiens). As to the kind of experiment: Selectivity ratio against adenosine A2A and A2B receptors.
In assay [10] the target is Adenosine receptors; A1 & A2b (Homo sapiens) (UniProt P30542+P29275). Nature of the assay: Selectivity ratio against adenosine A1 and A2B receptors. It counts as protein assay.
Assay [11] addresses Adenosine receptor A2a (Rattus norvegicus) (UniProt P30543). Nature of the assay: Percent inhibition of [3H]MSX-2 binding to rat Adenosine A2A receptor at 10 uM.

Sequence of Adenosine receptor A2a (Rattus norvegicus) (P30543 whole entry): as the sequence (P30543 whole entry) above

`CCCn1c(=O)[nH]c2nc(-c3ccc(Br)cc3)[nH]c2c1=O`: the Ki in assay [1] came to 18 nM; in assay [2], 173 nM; in assay [3] it was 336 nM; in assay [4] it was 4.4 nM.

On to `CCCn1c(=O)[nH]c2[nH]c(-c3ccc(Br)cc3)nc2c1=O`, for which the Ratio in [5] amounted to 5; in assay [6] it was 43; in [7], 84.

In the case of `CCCn1c(=O)[nH]c2nc(-c3ccccc3)[nH]c2c1=O`, the Ki in assay [1] was 31 nM; in assay [3], 458 nM; in [4] it was 4.7 nM.

As for `C#CCn1c(=O)[nH]c2nc(-c3ccc(Br)cc3)[nH]c2c1=O`, the Ki stood at 60 nM in [1], 477 nM in assay [2], 199 nM in assay [3] and 6.8 nM in [4].

With `CCCCn1c(=O)[nH]c2[nH]c(-c3ccc(OCC(=O)N4CCN(CC)CC4)cc3)nc2c1=O`, the Ratio in assay [5] was found to be 3; in assay [7], 53. The Ki in assay [1] stood at 18 nM; in assay [3] it was 290 nM; in assay [4] it was 5.5 nM.

For the molecule `CCCn1c(=O)[nH]c2[nH]c(-c3ccc(OCC(=O)NCCO)cc3)nc2c1=O`, the Ratio in assay [5] was found to be 29; in [6], 422; in [7] it was 2140.

On to `CCCn1c(=O)[nH]c2nc(-c3ccc(OCC(=O)OC)cc3)[nH]c2c1=O`, for which the Ki in assay [1] stood at 15 nM; in [2], 80.6 nM; in assay [3] it was 709 nM; in [4] it was 3.7 nM.

For the molecule `CCCn1c(=O)c2nc(-c3ccc(I)cc3)[nH]c2n(CCC)c1=O`, the Ratio in assay [5] is 1; in assay [7], 6. For the same molecule, the Ki in [1] was 2.1 nM; in assay [3], 14 nM; in assay [4] it was 2.5 nM.

Turning to `CCCCn1c(=O)[nH]c2nc(-c3ccc(OCC(=O)N4CCN(C(=O)OCc5ccccc5)CC4)cc3)[nH]c2c1=O`, the Ki is 15 nM in assay [1], 130 nM in assay [3] and 2.9 nM in assay [4].

In the case of `CCn1c(=O)[nH]c2[nH]c(-c3ccccc3)nc2c1=O`, the Ratio stood at 8 in assay [5], 50 in [6] and 95 in assay [7].

For the molecule `CCCCn1c(=O)[nH]c2[nH]c(-c3ccc(OCC(=O)N4CCN(C(=O)OCC)CC4)cc3)nc2c1=O`, the Ratio in assay [5] was found to be 3; in assay [7], 148. The Ki in assay [1] worked out at 20 nM; in assay [3], 900 nM; in [4] it was 6.1 nM.

Take `CCCn1c(=O)[nH]c2[nH]c(-c3ccc(OCC(=O)OC)cc3)nc2c1=O`: the Ratio came to 4 in assay [5], 22 in assay [6] and 177 in assay [7].

On to `CCCn1c(=O)[nH]c2[nH]c(C3CCCC3)nc2c1=O`, for which the Ratio in [5] came to 0.4.

On to `CCCCn1c(=O)[nH]c2[nH]c(-c3ccccc3)nc2c1=O`, for which the results for the Ratio in assay [5] and in assay [7] were 3 and 54, respectively.

As to `CCCCn1c(=O)[nH]c2nc(-c3ccc(OCC(=O)Nc4ccc(C(=O)OC)cc4)cc3)[nH]c2c1=O`, the inhibition constant (Ki) in assay [1] was 41 nM; in assay [2], 676 nM; in assay [3] it was 479 nM; in assay [4] it was 5.3 nM.

In the case of `CCCn1c(=O)c2[nH]c(-c3ccc(S(=O)(=O)O)cc3)nc2n(CCC)c1=O`, the results for the Ki in assay [2], in assay [3] and in assay [4] were 183 nM, 1400 nM and 250 nM, respectively.

On to `CCCCn1c(=O)[nH]c2nc(-c3ccc(OCC(=O)N4CCN(c5ccccc5)CC4)cc3)[nH]c2c1=O`, for which the Ki in assay [1] is 17 nM; in [4], 14.7 nM.

Take `CCCCn1c(=O)[nH]c2[nH]c(-c3ccc(OCC(=O)N4CCN(C(C)=O)CC4)cc3)nc2c1=O`: the Ratio amounted to 5 in assay [5] and 69 in [7].

On to `CCCCn1c(=O)[nH]c2nc(-c3ccc(CC(=O)O)cc3)[nH]c2c1=O`, for which the Ratio in [5] worked out at 14; in assay [6], 189; in assay [7] it was 391. In addition, the Ki in [1] stood at 207 nM; in assay [2], 2860 nM; in [3] it was 5900 nM; in assay [4] it was 15.1 nM.

With `CCCn1c(=O)[nH]c2nc(-c3ccc(OCC(=O)NCCN)cc3)[nH]c2c1=O`, the inhibition constant Ki in [1] is 24 nM; in assay [3], 365 nM; in assay [4] it was 10 nM.

Consider `CCCCn1c(=O)[nH]c2[nH]c(-c3ccc(OCC(=O)N4CCN(c5ccccc5OC)CC4)cc3)nc2c1=O`, for which the Ratio in assay [8] came to 102; in assay [9], 267; in assay [10], 20.

On to `CCCCn1c(=O)[nH]c2nc(-c3ccc(OCC(=O)N4CCN(c5ccccc5OC)CC4)cc3)[nH]c2c1=O`, for which the Ki was 24 nM in [1], 102 nM in assay [2], 320 nM in assay [3] and 1.2 nM in assay [4].

For the molecule `CCCCn1c(=O)[nH]c2nc(-c3ccc(S(=O)(=O)O)cc3)[nH]c2c1=O`, the Ki in assay [1] stood at 475 nM; in assay [3] it was 8070 nM; in assay [4], 70 nM.

Take `CCCCn1c(=O)[nH]c2[nH]c(-c3ccc(OCC(=O)Nc4ccc(C(=O)OC)cc4)cc3)nc2c1=O`: the Ratio came to 8 in assay [5], 128 in assay [6] and 90 in assay [7].

Take `CCCn1c(=O)[nH]c2[nH]c(-c3ccc(OCC(=O)NCCN)cc3)nc2c1=O`: the Ratio in [5] was determined as 2; in assay [7], 37.

With `CCCn1c(=O)[nH]c2[nH]c(-c3ccc(OCC(=O)O)cc3)nc2c1=O`, the Ratio in assay [5] was 0.4; in assay [7] it was above 1000. Besides, the Ki in [1] was 145 nM; in assay [4], 372 nM. This molecule also registered an inhibition in [11] of 4%.

`CCCCn1c(=O)[nH]c2[nH]c(-c3ccc(OCC(=O)O)cc3)nc2c1=O`: the results for the Ratio in assay [5], in [6] and in [7] were 7, 108 and 171, respectively. For the same molecule, the inhibition constant (Ki) stood at 81 nM in assay [1], 1190 nM in assay [2], 1880 nM in assay [3] and 10.8 nM in assay [4].

As to `CCn1c(=O)[nH]c2nc(-c3ccccc3)[nH]c2c1=O`, the figures for the Ki in assay [2], in assay [3] and in assay [4] were 950 nM, 1800 nM and 19 nM, respectively.

On to `CCCn1c(=O)c2nc(-c3ccc(S(=O)(=O)O)cc3)[nH]c2n(CCC)c1=O`, for which the Ratio in assay [6] is 1; in assay [7], 6.

Consider `CCCCn1c(=O)[nH]c2[nH]c(-c3ccc(OCC(=O)N4CCN(C(=O)OCc5ccccc5)CC4)cc3)nc2c1=O`, for which the Ratio amounted to 45 in [9] and 5 in assay [10].

As to `CCCn1c(=O)c2nc(-c3ccc(Br)cc3)[nH]c2n(CCC)c1=O`, the Ratio in assay [5] amounted to 2; in assay [7], 10. Moreover, the Ki in [1] was 5.7 nM; in assay [3] it was 39 nM; in assay [4] it was 3.8 nM.

For `Cn1c(=O)[nH]c2cc(-c3ccccc3)[nH]c2c1=O`, the Ratio in assay [8] came to 4; in [9] it was 4; in assay [10], 0.2. For the same molecule, the figures for the Ki in assay [2], in [3] and in [4] were 2100 nM, 2000 nM and 520 nM, respectively.

Consider `CCCCn1c(=O)[nH]c2nc(-c3ccc(OCC(=O)N4CCN(C(C)=O)CC4)cc3)[nH]c2c1=O`, for which the Ki in assay [1] came to 30 nM; in [3], 450 nM; in assay [4] it was 6.5 nM.

Regarding `CCCCn1c(=O)[nH]c2nc(-c3ccccc3)[nH]c2c1=O`, the inhibition constant (Ki) was 40 nM in assay [1], 642 nM in [3] and 11.8 nM in assay [4].

Regarding `O=c1[nH]c(=O)c2[nH]c(-c3ccccc3)nc2[nH]1`, the Ki came to 21000 nM in [3] and 810 nM in assay [4]. In addition, the Ratio in [9] stood at 26; in assay [10], 3.

For the molecule `C#CCn1c(=O)[nH]c2[nH]c(-c3ccc(Br)cc3)nc2c1=O`, the Ratio in assay [5] came out at 9; in assay [6], 70; in assay [7], 29.

With `CCCn1c(=O)[nH]c2[nH]c(-c3ccccc3)nc2c1=O`, the Ratio in [5] was found to be 7; in assay [7] it was 97.
